Assay results as given in US20240139326A1, “METHACRYLAMIDES PROTEIN BINDERS AND USES THEREOF” (YEDA RESEARCH AND DEVELOPMENT CO. LTD., priority 2020, published 2024).
Like-named read-outs stand apart in the source and are kept apart here.

Experiments:
physchem = details: 5 mM GSH in potassium phosphate buffer, pH 8
Mino cells = assay: In-gel fluorescence proteomic reactivity of alkyne probes; assay type: cell-based; details: Mino cells treated 2 h, clicked with TAMRA-azide
Procedure: The samples were incubated at 25 degrees for 2 hours.
Mino cells were treated for two hours with either DMSO, IA-alkyne, or 2a-c. The cells were lysed, labeled the alkynes via copper-catalyzed “click chemistry” with TAMRA (Tetramethylrhodamine)-azide, and imaged the adducts via in-gel fluorescence (FIG. 8B). […] This may be the result of cellular esterases that hydrolyze the ester, leaving an unreactive substituted acrylamide^26. All of the acrylamides were markedly less reactive than IA-alkyne.

BTK kinase domain [1] = biological target: T1, BTK kinase domain (Homo sapiens (Human), UniProt Q06187)
Procedure: (§2) The reaction mixtures, at room temperature for various times, were injected into the LC/MS. For data analysis, the raw spectra were deconvoluted using a 20000:40000 Da window and 1 Da resolution. The signal from masses 20000:30000 and 33000:40000 (which contained no peaks) was averaged and subtracted from the whole signal.

BTK kinase domain [2] = biological target: T1, BTK kinase domain; assay: Kinetic labeling experiments of Ibrutinib derivatives with BTK (intact protein LC/MS); details: for BTK Substitution/Addition: mechanism of BTK labeling; for labeling of BTK through the substitution mechanism: within 30 minutes
Procedure: as §2

wild-type BTK = wild-type BTK (Homo sapiens (Human), UniProt Q06187); assay: In vitro kinase activity assay for BTK (Nanosyn); assay type: biochemical
Procedure: The reaction was initiated by 2-fold dilution into a solution containing 5 μM ATP and substrate.

BTK [3] = biological target: T2, BTK (Homo sapiens (Human), UniProt Q06187); assay: Fluorescence intensity measurement of CoLDR turn-on probe with BTK; assay type: binding; details: 2 μM probe, 2 μM BTK
Procedure: (§1) Each condition was in triplicates in 20 mM Tris pH 8 50 mM NaCl for BTK and K-RAS^G12c, in 50 mM Tris pH 8.0, 100 mM NaCl for EGFR. fluorescent measurements were taken every 2 minutes for 2 hours for BTK and EGFR and every 10 minutes for 15 hours for K-RAS^G12c. […] K-Ras^G12C was expressed and purified as previously described^66, EGFR kinase domain was a generous gift from Prof. Michael Eck.
The fact that a specific leaving group is released as a function of selective binding of a target protein can be used to functionalize irreversible inhibitors, for example as turn-on fluorescent probes. To assess the applicability and generality of this approach three therapeutic targets were chosen for which acrylamide inhibitors are available: BTK, EGFR, and K-RAS^G12C as model systems. […] The rate of the reaction was […] by using 20:1 equivalents of protein:probe (FIG. 12). […] The release can also be inhibited by pre-incubation of BTK with Iodoacetamide alkyne (IAA; FIG. 13B).

BSA = BSA (Bos taurus (Bovine), UniProt P02769); assay: Turn-on fluorescence selectivity control with BSA; assay type: binding; details: 10 μM BSA with 2 μM 3j
BTK [4] = biological target: T2, BTK; assay: Turn-on chemiluminescence of probe 3k with BTK; assay type: binding
Procedure: Plate reader measurements were performed on Tecan Spark Control 10M fluorescent measurements using black 384 well plates with clear bottom.
Recently, adamantylidene-dioxetane based chemiluminescent turn-on probes for the sensing and imaging of enzymes, reactive oxygen species, and other analytes were reported^28-32 These probes, upon activation by analytes, release a phenolate-dioxetane intermediate which subsequently decomposes with the emission of a photon in the visible spectrum (FIG. 3). […] The chemiluminescence light emission profile of probe 3k (FIG. 15A, Example 1) upon activation with BTK (2 μM) was measured in the absence and presence of BTK (FIG. 15B). The kinetic profile in the presence of BTK was typical of a chemiluminescent probe with an initial signal was increased to a maximum within 20 minutes, followed by a slow decrease.

EGFR [5] = biological target: T3, EGFR (Homo sapiens (Human), UniProt P00533); assay: Fluorescence intensity measurement of CoLDR turn-on probe with EGFR; assay type: binding; details: 2 μM each
Procedure: as §1
Similarly, 4b (FIG. 11B, Example 1; afatinib derivative functionalized with coumarin) and 5a (FIG. 11C, Example 1; AMG-510 derivative functionalized with coumarin) were treated with EGFR and K-RAS^G12c respectively and measured the released coumarin fluorescence (FIG. 11E, 11F).

EGFR [6] = biological target: T3, EGFR; assay: EGFR kinase activity assay; assay type: biochemical; details: read-out: IC50 against EGFR
BTK kinase domain [7] = biological target: T1, BTK kinase domain; assay: Labeling experiments of Ibrutinib derivatives with BTK (ligand release, LC/MS); assay type: binding; details: BTK 2 μM, 10 min, 25° C., pH 8
Procedure: Binding experiments were performed in Tris 20 mM pH 8.0, 50 mM NaCl at room temperature. […] The reaction mixtures, at room temperature for various times, were injected into the LC/MS. For data analysis, the raw spectra were deconvoluted using a 20000:40000 Da window and 1 Da resolution. The labeling percentage for a compound was determined as the labeling of a specific compound (alone or together with other compounds) divided by the overall detected protein species.
To assess irreversible labeling and validate the proposed ligand release mechanism, the probes/compounds (2 μM) were incubated with recombinant BTK (2 μM) and monitored the reaction via intact protein liquid chromatography/mass spectrometry (LC/MS).

[8] = biological target: SARS-CoV-2 papain like protease (PL^pro) (Severe acute respiratory syndrome coronavirus 2 (2019-nCoV) (SARS-CoV-2), UniProt P0DTD1); assay: Labeling of PLpro (LC/MS); assay type: binding; details: 2 μM protein, 16h, pH 8
BTK [9] = biological target: T2, BTK; assay: Fluorescence intensity measurements of labeling probes with BTK; details: 4 μM competitor

T2 sequence (Q06187 2-659 limits assumed): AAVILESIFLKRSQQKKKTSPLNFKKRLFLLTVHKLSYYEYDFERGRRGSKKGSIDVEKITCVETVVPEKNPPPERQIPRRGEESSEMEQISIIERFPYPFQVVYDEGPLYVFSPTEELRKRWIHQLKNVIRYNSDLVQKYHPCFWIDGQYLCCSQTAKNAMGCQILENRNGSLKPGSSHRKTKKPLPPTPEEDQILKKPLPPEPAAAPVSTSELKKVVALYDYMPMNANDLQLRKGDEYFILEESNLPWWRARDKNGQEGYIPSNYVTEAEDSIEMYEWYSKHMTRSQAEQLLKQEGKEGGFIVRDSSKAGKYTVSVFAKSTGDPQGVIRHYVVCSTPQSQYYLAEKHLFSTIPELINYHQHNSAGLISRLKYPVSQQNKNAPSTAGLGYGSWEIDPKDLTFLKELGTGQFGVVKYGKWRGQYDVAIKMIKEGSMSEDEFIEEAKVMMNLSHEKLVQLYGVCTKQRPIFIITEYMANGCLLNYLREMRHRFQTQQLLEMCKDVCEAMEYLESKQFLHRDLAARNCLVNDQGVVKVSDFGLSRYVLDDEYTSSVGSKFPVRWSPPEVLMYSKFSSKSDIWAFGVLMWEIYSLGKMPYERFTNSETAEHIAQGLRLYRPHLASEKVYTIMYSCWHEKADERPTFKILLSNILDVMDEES
wild-type BTK, sequence (Q06187 whole entry): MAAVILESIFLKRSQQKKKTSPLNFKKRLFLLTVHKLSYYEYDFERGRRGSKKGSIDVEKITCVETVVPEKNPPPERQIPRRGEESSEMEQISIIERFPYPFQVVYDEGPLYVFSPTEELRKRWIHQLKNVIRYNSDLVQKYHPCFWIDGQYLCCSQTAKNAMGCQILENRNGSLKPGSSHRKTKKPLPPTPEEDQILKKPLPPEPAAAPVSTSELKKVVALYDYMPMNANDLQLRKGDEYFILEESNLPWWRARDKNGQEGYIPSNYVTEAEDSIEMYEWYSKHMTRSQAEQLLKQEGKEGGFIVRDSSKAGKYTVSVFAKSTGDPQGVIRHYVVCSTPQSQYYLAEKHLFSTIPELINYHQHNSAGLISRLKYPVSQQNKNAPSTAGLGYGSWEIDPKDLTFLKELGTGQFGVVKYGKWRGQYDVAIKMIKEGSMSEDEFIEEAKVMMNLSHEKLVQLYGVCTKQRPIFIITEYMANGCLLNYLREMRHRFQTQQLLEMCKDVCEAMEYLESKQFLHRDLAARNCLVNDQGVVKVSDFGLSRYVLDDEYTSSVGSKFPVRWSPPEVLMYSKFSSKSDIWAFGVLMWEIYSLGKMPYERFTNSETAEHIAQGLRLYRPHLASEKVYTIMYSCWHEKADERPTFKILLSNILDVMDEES
T1 sequence (Q06187 402-655): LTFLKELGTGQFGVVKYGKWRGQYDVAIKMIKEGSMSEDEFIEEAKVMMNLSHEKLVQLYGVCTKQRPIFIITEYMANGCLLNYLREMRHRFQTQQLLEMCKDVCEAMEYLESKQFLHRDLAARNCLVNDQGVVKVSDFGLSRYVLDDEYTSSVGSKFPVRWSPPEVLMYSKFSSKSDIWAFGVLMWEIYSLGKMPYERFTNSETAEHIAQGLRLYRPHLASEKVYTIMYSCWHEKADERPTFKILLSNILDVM
T3 sequence (P00533 25-1210 limits assumed): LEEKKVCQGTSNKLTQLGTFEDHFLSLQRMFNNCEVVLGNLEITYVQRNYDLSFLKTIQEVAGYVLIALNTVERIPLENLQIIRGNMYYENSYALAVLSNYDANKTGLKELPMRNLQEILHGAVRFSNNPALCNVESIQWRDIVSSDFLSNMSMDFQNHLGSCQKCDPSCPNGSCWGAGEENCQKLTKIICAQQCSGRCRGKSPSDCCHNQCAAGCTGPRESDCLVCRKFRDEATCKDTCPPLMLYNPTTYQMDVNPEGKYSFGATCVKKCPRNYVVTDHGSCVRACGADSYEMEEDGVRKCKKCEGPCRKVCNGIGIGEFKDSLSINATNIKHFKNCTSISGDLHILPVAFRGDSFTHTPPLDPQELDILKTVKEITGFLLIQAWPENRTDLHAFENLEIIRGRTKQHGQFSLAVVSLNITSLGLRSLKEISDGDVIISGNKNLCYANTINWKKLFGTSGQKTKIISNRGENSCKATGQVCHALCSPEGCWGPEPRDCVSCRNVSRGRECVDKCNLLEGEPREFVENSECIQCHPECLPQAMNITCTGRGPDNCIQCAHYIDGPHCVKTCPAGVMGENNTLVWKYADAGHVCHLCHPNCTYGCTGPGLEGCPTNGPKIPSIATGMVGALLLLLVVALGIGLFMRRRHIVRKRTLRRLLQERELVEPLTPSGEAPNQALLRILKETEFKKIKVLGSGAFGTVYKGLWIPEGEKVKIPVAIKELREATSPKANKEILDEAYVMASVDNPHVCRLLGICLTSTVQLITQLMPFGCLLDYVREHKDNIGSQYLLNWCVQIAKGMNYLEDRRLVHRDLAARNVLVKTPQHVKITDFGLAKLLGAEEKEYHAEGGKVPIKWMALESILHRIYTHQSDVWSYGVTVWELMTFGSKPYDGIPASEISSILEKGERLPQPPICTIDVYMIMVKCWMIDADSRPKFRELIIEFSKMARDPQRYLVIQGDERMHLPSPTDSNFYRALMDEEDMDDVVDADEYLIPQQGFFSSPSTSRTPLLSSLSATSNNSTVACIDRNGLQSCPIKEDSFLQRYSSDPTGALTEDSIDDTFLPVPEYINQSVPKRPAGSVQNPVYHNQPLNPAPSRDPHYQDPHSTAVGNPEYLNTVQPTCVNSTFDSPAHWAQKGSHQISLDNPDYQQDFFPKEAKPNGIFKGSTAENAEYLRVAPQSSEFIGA
BSA, sequence (P02769 25-607 limits assumed): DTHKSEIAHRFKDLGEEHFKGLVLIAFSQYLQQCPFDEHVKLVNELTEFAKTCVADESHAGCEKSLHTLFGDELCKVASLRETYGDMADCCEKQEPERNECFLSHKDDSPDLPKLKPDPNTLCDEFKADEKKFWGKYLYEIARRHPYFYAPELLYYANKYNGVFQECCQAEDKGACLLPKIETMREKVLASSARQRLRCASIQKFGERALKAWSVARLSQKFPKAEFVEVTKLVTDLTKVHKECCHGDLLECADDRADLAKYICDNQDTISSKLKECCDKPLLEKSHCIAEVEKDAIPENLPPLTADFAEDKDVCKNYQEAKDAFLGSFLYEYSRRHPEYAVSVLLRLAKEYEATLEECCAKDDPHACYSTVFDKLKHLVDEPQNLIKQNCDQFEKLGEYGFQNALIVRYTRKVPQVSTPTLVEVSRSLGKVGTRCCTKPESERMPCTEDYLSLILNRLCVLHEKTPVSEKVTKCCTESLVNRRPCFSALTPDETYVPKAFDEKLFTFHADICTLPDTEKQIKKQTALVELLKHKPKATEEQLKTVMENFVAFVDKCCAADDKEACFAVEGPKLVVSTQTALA

Structure (SMILES): C=C(COC(=O)Oc1ccc([N+](=O)[O-])cc1)C(=O)NCc1ccccc1 [Compound 1j, 2-(benzylcarbamoyl)allyl (4-nitrophenyl) carbonate]
- half-life at 100 μM (physchem): 54 min

Structure (SMILES): C#CCCNC(=O)C(=C)COc1ccc2ccc(=O)oc2c1 [Compound 2a, N-(but-3-yn-1-yl)-2-(((2-oxo-2H-chromen-7-yl)oxy)methyl)acrylamide]
- proteomic reactivity (in-gel fluorescence) (Mino cells): slightly higher reactivity than 2b

Structure (SMILES): C#CCCNC(=O)C(=C)COC(=O)c1ccccc1 [Compound 2c, 2-(but-3-yn-1-ylcarbamoyl)allyl benzoate]
- proteomic reactivity (in-gel fluorescence) (Mino cells): completely inactive

Structure (SMILES): C=C(C)C(=O)N1CCC[C@@H](n2nc(-c3ccc(Oc4ccccc4)cc3)c3c(N)ncnc32)C1 [Compound 3a, (R)-1-(3-(4-amino-3-(4-phenoxyphenyl)-1H-pyrazolo[3,4-d]pyrimidin-1-yl)piperidin-1-yl)-2-methylprop-2-en-1-one]
- BHK t1/2 (BTK kinase domain [1]): >420 min

Structure (SMILES): C=C(CN1CCCCC1)C(=O)N1CCC[C@@H](n2nc(-c3ccc(Oc4ccccc4)cc3)c3c(N)ncnc32)C1 [Compound 3c, (R)-1-(3-(4-amino-3-(4-phenoxyphenyl)-1H-pyrazolo[3,4-d]pyrimidin-1-yl)piperidin-1-yl)-2-(piperidin-1-ylmethyl)prop-2-en-1-one]
- BTK Substitution/Addition (BTK kinase domain [2]): exclusively through addition
- IC50 (wild-type BTK; 0.6 nM BTK, 5 μM ATP): 0.0001 µM
- IC50 (wild-type BTK; unit μM): < 100 µM

Structure (SMILES): C=C(CN(C)c1ccccc1)C(=O)N1CCC[C@@H](n2nc(-c3ccc(Oc4ccccc4)cc3)c3c(N)ncnc32)C1 [Compound 3d, (R)-1-(3-(4-amino-3-(4-phenoxyphenyl)-1H-pyrazolo[3,4-d]pyrimidin-1-yl)piperidin-1-yl)-2-((methyl(phenyl)amino)methyl)prop-2-en-1-one]
- BHK t1/2 (BTK kinase domain [2]; BTK labeling, 2 μM compound and 2 μM BTK at room temperature): 47 min
- BTK Substitution/Addition (BTK kinase domain [2]): Substitution
- labeling of BTK through the substitution mechanism (BTK kinase domain [2]): 100%
- IC50 (wild-type BTK; 0.6 nM BTK, 5 μM ATP): 0.0056 µM

Structure (SMILES): C=C(CNCc1ccccc1)C(=O)N1CCC[C@@H](n2nc(-c3ccc(Oc4ccccc4)cc3)c3c(N)ncnc32)C1 [Compound 3e, (R)-1-(3-(4-amino-3-(4-phenoxyphenyl)-1H-pyrazolo[3,4-d]pyrimidin-1-yl)piperidin-1-yl)-2-((benzylamino)methyl)prop-2-en-1-one]
- BTK Substitution/Addition (BTK kinase domain [2]): exclusively through addition
- BTK labeling t1/2 faster than Ibrutinib (BTK kinase domain [2]; relative to Ibrutinib): 50%
- BHK t1/2 (BTK kinase domain [1]; recombinant enzyme): <5 min
- IC50 (wild-type BTK; 0.6 nM BTK, 5 μM ATP): 0.0001 µM
- IC50 (wild-type BTK; unit μM): < 100 µM

Structure (SMILES): C=C(COC(C)=O)C(=O)N1CCC[C@@H](n2nc(-c3ccc(Oc4ccccc4)cc3)c3c(N)ncnc32)C1 [Compound 3g, (R)-2-(3-(4-amino-3-(4-phenoxyphenyl)-1H-pyrazolo[3,4-d]pyrimidin-1-yl)piperidine-1-carbonyl)allyl acetate]
- BTK Substitution/Addition (BTK kinase domain [2]): Substitution
- labeling of BTK through the substitution mechanism (BTK kinase domain [2]): 100%
- IC50 (wild-type BTK; 0.6 nM BTK, 5 μM ATP): 0.0001 µM
- IC50 (wild-type BTK; unit μM): < 100 µM

Structure (SMILES): C=C(COc1ccc2ccc(=O)oc2c1)C(=O)N1CCC[C@@H](n2nc(-c3ccc(Oc4ccccc4)cc3)c3c(N)ncnc32)C1 [Compound 3j, (R)-7-((2-(3-(4-amino-3-(4-phenoxyphenyl)-1H-pyrazolo[3,4-d]pyrimidin-1-yl)piperidine-1-carbonyl)allyl)oxy)-2H-chromen-2-one]
- labeling of BTK through the substitution mechanism (BTK kinase domain [2]): 100%
- increase of fluorescence intensity at 435 nm upon addition of BTK (BTK [3]): 30 fold
- time to fluorescence saturation (BTK [3]): ≤ 10 min
- fluorescence on incubation with BSA (BSA): did not result in increased fluorescence

Structure (SMILES): C=C(COc1c(Cl)cc(C2(OC)OOC23[C@H]2C[C@@H]4C[C@@H](C[C@H]3C4)C2)cc1/C=C/C(=O)OC)C(=O)N1CCC[C@@H](n2nc(-c3ccc(Oc4ccccc4)cc3)c3c(N)ncnc32)C1 (stereo partly drawn) [Compound 3k, Methyl (E)-3-(2-((2-((R)-3-(4-amino-3-(4-phenoxyphenyl)-1H-pyrazolo[3,4-d]pyrimidin-1-yl)piperidine-1-carbonyl)allyl)oxy)-3-chloro-5-((1r,3r,5R,7R)-4′-methoxyspiro[adamantane-2,3′-[1,2]dioxetan]-4′-yl)phenyl)acrylate]
- time to maximum chemiluminescence signal (BTK [4]; BTK 2 μM): ≤ 20 min

Structure (SMILES): C=C(COc1ccc2ccc(=O)oc2c1)C(=O)Nc1cc2c(Nc3ccc(F)c(Cl)c3)ncnc2cc1OC [Compound 4b, N-(4-((3-chloro-4-fluorophenyl)amino)-7-methoxyquinazolin-6-yl)-2-(((2-oxo-2H-chromen-7-yl)oxy)methyl)acrylamide]
- released coumarin fluorescence with EGFR (EGFR [5]): significant increase in fluorescence intensity
- IC50 (EGFR [6]): 3.3 nM

Structure (SMILES): C#CCCNC(=O)C(=C)CN1CCC(CNc2ncnc(N)c2-c2ccc(Oc3ccccc3)cc2)CC1 [Compound 7g]
- single labeling of BTK (BTK kinase domain [7]): 100%

Structure (SMILES): C=C(COC(=O)c1cc(OC)c(OC)c(OC)c1)C(=O)OCC [Compound 7t]
- single labeling of PL^pro [8]: 100%

Structure (SMILES): Nc1ncnc2c1c(-c1ccc(Oc3ccccc3)cc1)nn2[C@@H]1CCCNC1 [Ibr-H, reference compound]
- 3k luminescence after pre-incubation of BTK with competitor (BTK [4]; 2 μM, 0.5 h pre-incubation): significant decrease in the luminescence detected
- 7m turn-on fluorescence after pre-incubation of BTK with competitor (BTK [9]): eliminated the fluorescence
